# Data taken from publication PMC9927463, “Identification and Characterization of Corynaridin, a Novel Linaridin from Corynebacterium lactis” (Microbiology Spectrum, 2022).
# Tests used:
# [1] = system: C. glutamicum ATCC 13032/pPB-pHin2^Cg; assay: pHluorin assay for membrane damage; assay type: cell-based, Corynebacterium glutamicum; conditions: LMB pH 6.2, 30 min room temperature
# Description: For detection of membrane damage, a pHluorin assay was conducted as described earlier ([34]). In particular, a 5-mL BHI overnight culture containing kanamycin (50 μg/mL) of the sensor strain C. glutamicum ATCC 13032/pPB-pHin2^Cg was harvested by centrifugation and resuspended to an OD600 of 3 in Listeria minimal buffer [LMB: 100 mM MOPS, 4.82 mM KH2PO4, 11.52 mM Na2HPO4, 1.7 mM MgSO4, 0.6 g/L (NH4)2SO4, 55 mM glucose (pH 6.2)]. Serial 2-fold dilutions of samples were prepared in black 96-well microtiter plates (Sarsted, Nümbrecht, Germany) with a final volume of 100 μL in each well. Subsequently, 100 μL of the sensor strain suspension was added and the plate was incubated at room temperature in the dark for 30 min. Then, pHluorin2 fluorescence was measured at 520 nm with excitation at the distinct maxima at 400 and 480 nm using an infinite M200 plate reader (Tecan, Männedorf, Switzerland).
# [2] = system: C. glutamicum ATCC 13032; assay: time-kill kinetics; assay type: cell-based, Corynebacterium glutamicum
# Description: Fresh overnight cultures of C. glutamicum ATCC 13032 were used to inoculate 5 mL 2× TY in glass tubes with a starting OD600 of 0.5 (i.e., ~10^7 CFU/mL). Samples of interest were added at the indicated concentrations prior to inoculation of the medium. Cultures were then incubated on a rotary shaker at 130 rpm for 24 h at 30°C. Samples were collected at the indicated time points, diluted (10^−1 to 10^−8), and plated on 2× TY agar. CFU per milliliter were determined after 24 to 48 h of incubation of the plates at 30°C by counting the colonies for the respective dilution.
# [3] = target: proteinase K (Parengyodontium album, UniProt P06873); assay: resistance to protease treatment; assay type: in vitro ADME
# proteinase K, sequence (P06873 106-384): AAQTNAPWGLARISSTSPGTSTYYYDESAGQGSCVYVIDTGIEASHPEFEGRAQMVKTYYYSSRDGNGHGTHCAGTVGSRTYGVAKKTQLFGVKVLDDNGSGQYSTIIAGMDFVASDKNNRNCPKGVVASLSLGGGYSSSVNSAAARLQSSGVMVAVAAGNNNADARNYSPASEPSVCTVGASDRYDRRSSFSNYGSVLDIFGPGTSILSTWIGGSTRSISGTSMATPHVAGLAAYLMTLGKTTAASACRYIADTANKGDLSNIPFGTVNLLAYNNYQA
# Description: (§1) To assess the physicochemical properties of the purified compound, it was tested for resistance to protease and heat treatment (Fig. 3c and d). While a reduction of activity of the RPC fraction to 8,000 BU/mL (i.e., about 4-fold) was observed after incubation with trypsin or proteinase K, heat treatment at 80°C and 100°C for 10 min had no effect.
# [4] = system: trypsin; assay type: in vitro ADME
# Description: as §1
# [5] = system: C. glutamicum ATCC 13032; assay: fluorescence microscopy of propidium iodide-stained bacteria; assay type: cell-based, Corynebacterium glutamicum; conditions: 4,000-BU/mL RPC fraction, 10 to 30 min incubation
# Description: A fresh culture of C. glutamicum ATCC 13032 was washed once in phosphate-buffered saline (PBS), and bacteria were resuspended in saline (0.9% [wt/vol] NaCl) at an OD600 of 1. An 87.5-μL concentration of the cell suspension was mixed with nisin, cetyltrimethylammonium bromide (CTAB), H2O, or the RPC fraction containing corynaridin to the indicated concentrations and incubated for 10 to 30 min in the dark. Then, the bacteria were stained using 12.5 μL propidium iodide (25 μg/mL) (Invitrogen, Darmstadt, Germany) and again incubated for 15 min in the dark. Samples were imaged using a Axio Observer Z1 (Zeiss, Oberkochen, Germany) in bright-field and fluorescence mode with a filter set for propidium iodide (excitation at 575 to 625 nm, emission at 660 to 710 nm). Images were acquired with a 63× lens objective and analyzed using the Zen software (version 2.3 SP1; Zeiss).
# [6] = system: Corynebacterium glutamicum ATCC 13032; assay: spot-on-lawn assay; assay type: cell-based; set-up: key to Activity, RPC fraction: +: zone of inhibition; (+): diffuse zone of inhibition; −: no zone of inhibition
# Description: (§2) Antimicrobial activity was determined using a spot-on-lawn assay. Overnight cultures of the respective strains were inoculated with an OD600 of 0.01 into hand-warmed agar medium (16 g/L agar) and poured into sterile petri dishes. After solidification, surfaces of agar plates were air dried at room temperature under a sterile hood. Supernatants and purification fractions were serially diluted and spotted onto agar plates. Plates were incubated under the preferred conditions of the embedded bacteria until growth was visible. Volumetric bacteriocin activity (bacteriocin units [BU] per milliliter) was determined by dividing the last dilution factor resulting in a visible zone of inhibition by the volume spotted.
# [7] = system: Listeria innocua LMG2785; assay: spot-on-lawn assay; assay type: cell-based; set-up: key to Activity, RPC fraction: +: zone of inhibition; (+): diffuse zone of inhibition; −: no zone of inhibition
# Description: as §2
# [8] = system: Cutibacterium acnes DSM 16379; assay: spot-on-lawn assay; assay type: cell-based; set-up: key to Activity, RPC fraction: +: zone of inhibition; (+): diffuse zone of inhibition; −: no zone of inhibition
# Description: as §2
# [9] = resistance to heat treatment; assay type: physicochemical; conditions: read-out spot-on-lawn, 10-μL sample
# Description: as §1
# [10] = system: Lactococcus lactis IL1403; assay: spot-on-lawn assay; assay type: cell-based; set-up: key: +: zone of inhibition; (+): diffuse zone of inhibition; −: no zone of inhibition; conditions: ten-microliter RPC fraction
# Description: as §2
# [11] = system: Corynebacterium amycolatum DSM 6922; assay: spot-on-lawn assay; assay type: cell-based; set-up: key: +: zone of inhibition; (+): diffuse zone of inhibition; −: no zone of inhibition; conditions: ten-microliter RPC fraction
# Description: as §2
# [12] = system: Corynebacterium striatum DSM 20668; assay: spot-on-lawn assay; assay type: cell-based; set-up: key: +: zone of inhibition; (+): diffuse zone of inhibition; −: no zone of inhibition; conditions: ten-microliter RPC fraction
# Description: as §2
# [13] = system: Micrococcus luteus DSM 20030; assay: spot-on-lawn assay; assay type: cell-based; set-up: key: +: zone of inhibition; (+): diffuse zone of inhibition; −: no zone of inhibition; conditions: ten-microliter RPC fraction
# Description: as §2
# [14] = system: Corynebacterium ammoniagenes DSM 20306; assay: spot-on-lawn assay; assay type: cell-based; set-up: key: +: zone of inhibition; (+): diffuse zone of inhibition; −: no zone of inhibition; conditions: ten-microliter RPC fraction
# Description: as §2
# [15] = system: Pseudomonas fluorescens DSM 50090; assay: spot-on-lawn assay; assay type: cell-based; set-up: key: +: zone of inhibition; (+): diffuse zone of inhibition; −: no zone of inhibition; conditions: ten-microliter RPC fraction
# Description: as §2
# [16] = system: Lactobacillus plantarum DSM 1055; assay: spot-on-lawn assay; assay type: cell-based; set-up: key: +: zone of inhibition; (+): diffuse zone of inhibition; −: no zone of inhibition; conditions: ten-microliter RPC fraction
# Description: as §2
# [17] = system: Corynebacterium efficiens DSM 44549; assay: spot-on-lawn assay; assay type: cell-based; set-up: key: +: zone of inhibition; (+): diffuse zone of inhibition; −: no zone of inhibition; conditions: ten-microliter RPC fraction
# Description: as §2
# [18] = system: Staphylococcus aureus ATCC 29213; assay: spot-on-lawn assay; assay type: cell-based; set-up: key: +: zone of inhibition; (+): diffuse zone of inhibition; −: no zone of inhibition; conditions: ten-microliter RPC fraction
# Description: as §2
# [19] = system: Bacillus subtilis DSM 402; assay: spot-on-lawn assay; assay type: cell-based; set-up: key: +: zone of inhibition; (+): diffuse zone of inhibition; −: no zone of inhibition; conditions: ten-microliter RPC fraction
# Description: as §2
# [20] = system: Escherichia coli K-12 MG1655; assay: spot-on-lawn assay; assay type: cell-based; set-up: key: +: zone of inhibition; (+): diffuse zone of inhibition; −: no zone of inhibition; conditions: ten-microliter RPC fraction
# Description: as §2
# [21] = system: Staphylococcus epidermidis DSM 3269; assay: spot-on-lawn assay; assay type: cell-based; set-up: key: +: zone of inhibition; (+): diffuse zone of inhibition; −: no zone of inhibition; conditions: ten-microliter RPC fraction
# Description: as §2
# [22] = system: Corynebacterium casei DSM 44701; assay: spot-on-lawn assay; assay type: cell-based; set-up: key: +: zone of inhibition; (+): diffuse zone of inhibition; −: no zone of inhibition; conditions: ten-microliter RPC fraction
# Description: as §2
# [23] = system: Corynebacterium xerosis DSM 20743; assay: spot-on-lawn assay; assay type: cell-based; set-up: key: +: zone of inhibition; (+): diffuse zone of inhibition; −: no zone of inhibition; conditions: ten-microliter RPC fraction
# Description: as §2
# [24] = system: Pediococcus acidilactici 347; assay: spot-on-lawn assay; assay type: cell-based; set-up: key: +: zone of inhibition; (+): diffuse zone of inhibition; −: no zone of inhibition; conditions: ten-microliter RPC fraction
# Description: as §2
# [25] = system: Corynebacterium lipophiloflavum DSM 44291; assay: spot-on-lawn assay; assay type: cell-based; set-up: key: +: zone of inhibition; (+): diffuse zone of inhibition; −: no zone of inhibition; conditions: ten-microliter RPC fraction
# Description: as §2
# [26] = system: Listeria monocytogenes EGD-e; assay: spot-on-lawn assay; assay type: cell-based; set-up: key: +: zone of inhibition; (+): diffuse zone of inhibition; −: no zone of inhibition; conditions: ten-microliter RPC fraction
# Description: as §2
# [27] = system: Micrococcus luteus; conditions: cited from earlier work
# Excerpt: (§3) While extensive studies have been carried out on the structure and chemistry behind their modifications, comparably little is known about the biological functions of linaridins. […] So far, for none of the hitherto described linaridins receptors or mode of action have been prop ...
# [28] = system: Streptococcus pyogenes strain; conditions: cited from earlier work
# Excerpt: as §3
compound,measurement,setting,value
"CCCCCCCCCCCCCCCC[N+](C)(C)C [CTAB, cetyltrimethylammonium bromide]",change of pHluorin2 fluorescence ratio (excitation 400/480 nm),[1]; positive controls,reduced fluorescence ratios
"O=C(N[C@H](CO)[C@H](O)c1ccc([N+](=O)[O-])cc1)C(Cl)Cl [chloramphenicol, reference compound]",CFU per milliliter throughout the experiment,"[2]; 6.5 μg/mL, 2x TY, 30°C, 24 h",stable levels of CFU per milliliter
corynaridin,reduction of activity after incubation with proteinase K,"[3]; 32,000 to 8,000 BU/mL",about 4 fold
same,activity of the RPC fraction after incubation with proteinase K,"[3]; starting activity 32,000 BU/mL, read-out spot-on-lawn, 10-μL sample, RPC fraction 606 μg/mL total protein","8,000 BU/mL"
same,change of pHluorin2 fluorescence ratio (excitation 400/480 nm),"[1]; concentrations up to 10,000 BU/mL, at least three biological replicates",did not result in a change of fluorescence ratios
same,reduction of activity after incubation with trypsin,[4],about 4 fold
same,membrane integrity by propidium iodide staining,[5],no evidence for compromised integrity
same,volumetric bacteriocin activity of RPC preparation,"[6]; purified from CLI culture supernatant (ammonium sulfate, CIEX, RPC), resuspended in HPLC-grade H2O, BU/mL = last inhibiting dilution factor / volume spotted","32,000 BU/mL"
same,volumetric bacteriocin activity of RPC sample for LC-MS,"[6]; purified from CLIV minimal medium supernatant (CIEX, RPC), corresponding to 0.5 μg/mL protein","40,000 BU/mL"
same,"Activity, RPC fraction","[6]; spot-on-lawn, ten-microliter RPC fraction",+
same,"Activity, RPC fraction",[7]; ten-microliter RPC fraction,(+)
same,concentration of RPC fraction at which low levels of inhibition were achieved,[7]; total protein of RPC fraction,"> 1,000 μg/mL"
same,"Activity, RPC fraction",[8]; ten-microliter RPC fraction,(+)
same,concentration of RPC fraction at which low levels of inhibition were achieved,[8]; total protein of RPC fraction,"> 1,000 μg/mL"
same,CFU/mL after 24 h,[2]; RPC fraction at 400 BU/mL (lower concentration),slightly increased CFU/mL after 24 h
same,decrease of CFU per milliliter after 2 h,"[2]; RPC fraction at 400 BU/mL, 2x TY, 30°C, start ~10^7 CFU/mL",4 orders of magnitude
same,CFU/mL after 24 h,"[2]; RPC fraction at 1,060 BU/mL (high concentration)",remained at low levels of CFU/mL
same,decrease of CFU per milliliter after 2 h,"[2]; RPC fraction at 1,060 BU/mL, 2x TY, 30°C, start ~10^7 CFU/mL",4 orders of magnitude
same,effect of heat treatment on activity,[9]; 80°C for 10 min,no effect
same,effect of heat treatment on activity,[9]; 100°C for 10 min,no effect
same,"Activity, RPC fraction",[10],+
same,"Activity, RPC fraction",[11],+
same,"Activity, RPC fraction",[12],+
same,"Activity, RPC fraction",[13],+
same,"Activity, RPC fraction",[14],+
same,"Activity, RPC fraction",[15],−
same,"Activity, RPC fraction",[16],−
same,"Activity, RPC fraction",[17],+
same,"Activity, RPC fraction",[18],−
same,"Activity, RPC fraction",[19],−
same,"Activity, RPC fraction",[20],−
same,"Activity, RPC fraction",[21],−
same,"Activity, RPC fraction",[22],+
same,"Activity, RPC fraction",[23],+
same,"Activity, RPC fraction",[24],−
same,"Activity, RPC fraction",[25],+
same,"Activity, RPC fraction",[26],−
cypemycin,antimicrobial activity,[27],limited to Micrococcus luteus
nisin [reference compound],change of pHluorin2 fluorescence ratio (excitation 400/480 nm),[1]; positive controls,reduced fluorescence ratios
same,reduced number of CFU/mL after 2 h,"[2]; 1.25 μg/mL, 2x TY, 30°C, start ~10^7 CFU/mL",> 4 log
salinipeptins,growth inhibition,[28],inhibit growth
